Data: patent publication US20260284152A1, “COMPOSITION COMPRISING GV1001 FOR PREVENTING OR TREATING MACULAR DEGENERATION” (GEMVAX & KAEL CO., LTD., priority 2023, published 2026)

What was measured:
[1] = test system: retinal pigment epithelial cell line ARPE-19; test: Reduction of epithelial-mesenchymal transition (cadherin 1 / vimentin, confocal microscope) in H2O2-treated retinal pigment epithelial cells; format: cell-based; settings: ARPE-19, H2O2 50 μM
Source text: (§1) Reactive oxygen species were generated by treating retinal pigment epithelial cell line ARPE-19 with hydrogen peroxide (H2O2).
(§2) Degenerated retinal pigment epithelial cells that appear in age-related macular degeneration were set as a model cell line, and epithelial loss of retinal pigment epithelial cells was induced.
The degree of epithelial-mesenchymal transition, which indicates degeneration of retinal pigment epithelial cells, was confirmed by observing changes in cadherin 1 as an epithelial cell marker, and vimentin as a mesenchymal cell marker, using a confocal microscope, and the results are shown in FIG. 7.

[2] = test system: C57BL/6 mice injected with NaIO3; test: Long-term administration in NaIO3 mouse model of age-related macular degeneration (RPE/choroid flat mount, phalloidin); format: in vivo; settings: NaIO3 20 mg/kg IV mice; for Tight junction structure of the retinal pigment epithelium: long-term post-treatment; for Tight junction structure of the retinal pigment epithelial layer: long-term pre-treatment
Source text: A mouse model of age-related macular degeneration was established by injecting […] into C57BL/6 mice and inducing oxidative stress specifically in retinal pigment epithelial cells to cause damage.
The GV1001 dose determined through an efficacy evaluation test by short-term administration was used for efficacy evaluation in long-term administration.
The animal experimental group for verification of efficacy in reducing retinal pigment epithelial degeneration by long-term administration (3 months) of GV1001 was set up as shown in Table 4 below.
To determine whether the disruption of tight junctions in the retinal pigment epithelium was inhibited by GV1001, the retinal pigment epithelium/choroid was flat-mounted, and the junctions between epithelial cells were stained with phalloidin-stained samples and observed using a confocal microscope to determine the degree of disruption of tight junctions.
To determine whether the disruption of the tight junctions in the retinal pigment epithelium was reduced by long-term GV1001 administration, the retinal pigment epithelium/choroid was flat-mounted, and the junctions between epithelial cells were stained with phalloidin and observed using a confocal microscope.

[3] = test system: retinal pigment epithelial cell line ARPE-19; test: Reduction of reactive oxygen species (DCF-DA fluorescence) in H2O2-treated retinal pigment epithelial cells; format: cell-based
Source text: as §1, §2
Using DCF-DA as a reactive oxygen species dye sample, the change in the level of reactive oxygen species in retinal pigment epithelial cells (ARPE-19) induced by GV1001 was confirmed by fluorescence microscopy, and the results are shown in FIGS. 6A and 6B. DCF-DA fluorescence intensity increased when oxidative stress was induced by H2O2, but decreased by treatment with metformin, a positive control.

[4] = test system: C57BL/6 mice injected with NaIO3; test: Short-term administration in NaIO3 mouse model of age-related macular degeneration (RPE/choroid flat mount, phalloidin); format: in vivo; settings: NaIO3 20 mg/kg IV mice
Source text: Mice injected with sodium iodate (NaIO3) are used as a representative model of age-related macular degeneration. A mouse model of age-related macular degeneration was established by injecting NaIO3 into C57BL/6 mice, thereby inducing oxidative stress specific to retinal pigment epithelial cells and causing damage.
To determine whether the disruption of tight junctions in the retinal pigment epithelium caused by NaIO3 administration was inhibited by GV1001, the retinal pigment epithelium/choroid (RPE/choroid) was flat-mounted, and the junctions between epithelial cells were stained with phalloidin samples and observed using a confocal microscope.
To determine whether the disruption of tight junctions in the retinal pigment epithelial cell layer was inhibited by GV1001, the retinal pigment epithelial layer/choroid was flat-mounted, and the junctions between epithelial cells were stained with phalloidin and observed using a confocal microscope.

| Molecule | Epithelial-mesenchymal transition (cadherin 1, vimentin) ([1]; post-treatment, 10 μM) | Epithelial-mesenchymal transition (cadherin 1, vimentin) ([1]; pre-treatment, 0.01 μM) | Tight junction structure of the retinal pigment epithelium ([2]; 0.1 mg/kg SC three times a week for 10 weeks) | Tight junction structure of the retinal pigment epithelium ([2]; 1.0 mg/kg SC three times a week for 10 weeks) | Tight junction structure of the retinal pigment epithelial layer ([2]; 0.1 mg/kg SC three times a week for 12 weeks) | Tight junction structure of the retinal pigment epithelial layer ([2]; 1.0 mg/kg SC three times a week for 12 weeks) | DCF-DA fluorescence intensity (reactive oxygen species) ([3]; ARPE-19, H2O2 50 μM, post-treatment (2 h after 24 h H2O2), 0.1 μM) | DCF-DA fluorescence intensity (reactive oxygen species) ([3]; ARPE-19, H2O2 50 μM, post-treatment (2 h after 24 h H2O2), 10 μM) | DCF-DA fluorescence intensity (reactive oxygen species) ([3]; ARPE-19, H2O2 50 μM, pre-treatment (2 h before 24 h H2O2), 0.01 μM) | Tight junction structure of the retinal pigment epithelial cell layer ([4]; short-term post-treatment, 0.5 mg/kg SC three times within one week from 10 days after NaIO3) | Tight junction structure of the retinal pigment epithelial cell layer ([4]; short-term post-treatment, 1.0 mg/kg SC three times within one week from 10 days after NaIO3) | Tight junction structure of the retinal pigment epithelial cell layer ([4]; short-term pre-treatment, 0.1 mg/kg SC three times a week for two weeks) | Epithelial-mesenchymal transition (cadherin 1, vimentin) ([1]; metformin 1 mM positive control) | DCF-DA fluorescence intensity (reactive oxygen species) ([3]; ARPE-19, H2O2 50 μM oxidative stress, metformin 1 mM positive control) | Tight junction structure of the retinal pigment epithelial cell layer ([4]; metformin 4 mg/mL in drinking water for 7 days before NaIO3) |
| --- | --- | --- | --- | --- | --- | --- | --- | --- | --- | --- | --- | --- | --- | --- | --- |
| GV1001: A peptide consisting of 16 amino acids, having the amino acid sequence of SEQ ID NO: 1, derived from human telomerase (EARPALLTSRLRFIPK; UniProt O14746 611-626, looked up, fragment) | reduced | reduced | well maintained | well maintained | well maintained | well maintained | decreased | decreased | decreased | maintained | maintained | maintained |  |  |  |
| CN(C)C(=N)N=C(N)N [metformin, reference compound] |  |  |  |  |  |  |  |  |  |  |  |  | reduced | decreased | maintained |
